# Source: patent US20230321125A1, “COMPOSITIONS OF GINSENOSIDE RG3 AND GINSENOSIDE RG5 AND THEIR PHARMACEUTICAL USES INCLUDING ANTI-TUMOR EFFECTS” (DALIAN FUSHENG NATURAL MEDICINE DEVELOPMENT CO., LTD., priority 2020, published 2023)
# Tested on: QBC939/ADM
# Assay: CCK-8 assay of cytotoxicity of targeted drugs with or without ginsenoside composition in drug-resistant cells
# Assay type: cell-based, Human
# Conditions: 24 h
# Method: 1. Materials and Methods Human cholangiocarcinoma cell line QBC939, purchased from Shanghai Honshun Biological Technology Co., Ltd.
# The human cholangiocarcinoma cell line QBC939 was thawed and inoculated into T25 cell culture flasks filled with cell culture medium, and QBC939/ADM was constructed by continuously increasing the contact concentration of ADM.
# The cells were divided into a blank zeroed control group, a normal control group and 9 experimental groups, each containing 100 μL of 80 μg/mL ginsenoside composition for cell culturing.
# The control group (chemotherapeutic drug group): 100 μL of culture medium containing chemotherapeutic drugs was added to each well. The chemotherapeutic drugs included the targeted drugs afatinib (400 μg/mL), ceritinib (1000 μg/mL) and erlotinib (200 μg/mL). Six replicate wells were set up for each drug.
# The experimental group (chemotherapeutic drugs+traditional Chinese medicine): 100 μL of culture medium containing chemotherapeutic drugs+ginsenoside composition was added to each well, namely afatinib (400 μg/mL)+ginsenoside composition (80 μg/mL), ceritinib (1000 μg/mL)+ginsenoside composition (80 μg/mL), and erlotinib (200 μg/mL)+ginsenoside composition (80 μg/mL). Six replicate wells were set up for each drug.
# The cytotoxic effects of the chemotherapeutic drugs were detected 24 h later.
structure (smiles),measurement,setting,value
CN(C)C/C=C/C(=O)Nc1cc2c(Nc3ccc(F)c(Cl)c3)ncnc2cc1O[C@H]1CCOC1 [afatinib],"Absorbance value (OD, CCK-8), Afatinib",control group: afatinib 400 μg/mL alone,1.179 ± 0.147
Cc1cc(Nc2ncc(Cl)c(Nc3ccccc3S(=O)(=O)C(C)C)n2)c(OC(C)C)cc1C1CCNCC1 [ceritinib],"Absorbance value (OD, CCK-8), Ceritinib",control group: ceritinib 1000 μg/mL alone,1.304 ± 0.096
C#Cc1cccc(Nc2ncnc3cc(OCCOC)c(OCCOC)cc23)c1 [erlotinib],"Absorbance value (OD, CCK-8), Erlotinib",control group: erlotinib 200 μg/mL alone,1.294 ± 0.131
